This is an account of results in patent publication EP4722207A1, “OXOISOINDOLINYL-SUBSTITUTED TETRAHYDROPYRIMIDINEDIONE DERIVATIVE AND USE THEREOF” (Gluetacs Therapeutics (Shanghai) Co., Ltd., priority 2023, dated 2024).

The target of one test is T1, WEE1 (Homo sapiens, UniProt P30291+Q96SW2).
T1 construct: effects of the compounds of the present disclosure on the expression of target proteins in cells; endogenous in cells; host or cells: human PBMCs (hPBMCs)
Briefly: Western-blot assay, substrate protein degradation in hPBMCs: WEE1. Format: cell-based. The conditions noted are these: 24 hours of compound treatment, 50 nM and 500 nM.

The next test relates to H2228. Briefly: Cell viability assay (CellTiter-Meiluncell Luminescent), tumor cell proliferation, H2228. The conditions noted are these: Homo sapiens, NCI-H2228, 96 h; for inhibition at 0.01 µM: read-out: Inhibition Rate at 10 nM (%); for inhibition at 0.5 µM: read-out: Inhibition Rate at 500 nM (%).
The target in the next test is T2, IKZF3 (Homo sapiens, UniProt Q96SW2+Q9UKT9).
T2 construct: effects of the compounds of the present disclosure on the expression of target proteins in cells; endogenous in cells; host or cells: human PBMCs (hPBMCs)
In words: Western-blot assay, substrate protein degradation in hPBMCs: IKZF3. Format: cell-based. The conditions noted are these: 24 hours of compound treatment, 50 nM and 500 nM.

The next test relates to MV-4-11. Briefly: Cell viability assay (CellTiter-Meiluncell Luminescent), tumor cell proliferation, MV-4-11. The conditions noted are these: Homo sapiens, MV4-11, 96 h; for inhibition at 0.01 µM: read-out: Inhibition Rate at 10 nM (%); for inhibition at 0.5 µM: read-out: Inhibition Rate at 500 nM (%).
The next test deals with T3, IKZF1 (Homo sapiens, UniProt Q13422+Q96SW2).
T3 construct: effects of the compounds of the present disclosure on the expression of target proteins in cells; endogenous in cells; host or cells: human PBMCs (hPBMCs)
Briefly: Western-blot assay, substrate protein degradation in hPBMCs: IKZF1. Type of test: cell-based. The conditions noted are these: 24 hours of compound treatment, 50 nM and 500 nM.

The target of a further test is T4, CK1α (Homo sapiens, UniProt P48729+Q96SW2).
T4 construct: effects of the compounds of the present disclosure on the expression of target proteins in cells; endogenous in cells; host or cells: human PBMCs (hPBMCs)
Briefly: Western-blot assay, substrate protein degradation in hPBMCs: CK1α. Type of test: cell-based. The conditions noted are these: 24 hours of compound treatment, 50 nM and 500 nM.

The next test addresses T5, GSPT1 (Homo sapiens, UniProt P15170+Q96SW2).
T5 construct: effects of the compounds of the present disclosure on the expression of target proteins in cells; endogenous in cells; host or cells: human PBMCs (hPBMCs)
Briefly: Western-blot assay, substrate protein degradation in hPBMCs: GSPT1. Type of test: cell-based. The conditions noted are these: 24 hours of compound treatment, 50 nM and 500 nM.

The test system of a further test is MDA-MB-231. Briefly: Cell viability assay (CellTiter-Meiluncell Luminescent), tumor cell proliferation, MDA-MB-231. The conditions noted are these: Homo sapiens, MDA-MB-231, 96 h; for inhibition at 0.01 µM: read-out: Inhibition Rate at 10 nM (%); for inhibition at 0.5 µM: read-out: Inhibition Rate at 500 nM (%).
For a further test, the target named is T6, IKZF2 (Homo sapiens, UniProt Q96SW2+Q9UKS7).
T6 construct: effects of the compounds of the present disclosure on the expression of target proteins in cells; endogenous in cells; host or cells: human PBMCs (hPBMCs)
In words: Western-blot assay, substrate protein degradation in hPBMCs: IKZF2. Type of test: cell-based. The conditions noted are these: 24 hours of compound treatment, 50 nM and 500 nM.

A further test has as its system H292. Briefly: Cell viability assay (CellTiter-Meiluncell Luminescent), tumor cell proliferation, H292. The conditions noted are these: Homo sapiens, NCI-H292, 96 h; for inhibition at 0.01 µM: read-out: Inhibition Rate at 10 nM (%); for inhibition at 0.5 µM: read-out: Inhibition Rate at 500 nM (%).
The subject of another test is MM.1S. In words: Cell viability assay (CellTiter-Meiluncell Luminescent), tumor cell proliferation, MM.1S. The conditions noted are these: Homo sapiens, MM1.S, 96 h; for inhibition at 0.01 µM: read-out: Inhibition Rate at 10 nM (%); for inhibition at 0.5 µM: read-out: Inhibition Rate at 500 nM (%).

T5 sequence (P15170 whole entry): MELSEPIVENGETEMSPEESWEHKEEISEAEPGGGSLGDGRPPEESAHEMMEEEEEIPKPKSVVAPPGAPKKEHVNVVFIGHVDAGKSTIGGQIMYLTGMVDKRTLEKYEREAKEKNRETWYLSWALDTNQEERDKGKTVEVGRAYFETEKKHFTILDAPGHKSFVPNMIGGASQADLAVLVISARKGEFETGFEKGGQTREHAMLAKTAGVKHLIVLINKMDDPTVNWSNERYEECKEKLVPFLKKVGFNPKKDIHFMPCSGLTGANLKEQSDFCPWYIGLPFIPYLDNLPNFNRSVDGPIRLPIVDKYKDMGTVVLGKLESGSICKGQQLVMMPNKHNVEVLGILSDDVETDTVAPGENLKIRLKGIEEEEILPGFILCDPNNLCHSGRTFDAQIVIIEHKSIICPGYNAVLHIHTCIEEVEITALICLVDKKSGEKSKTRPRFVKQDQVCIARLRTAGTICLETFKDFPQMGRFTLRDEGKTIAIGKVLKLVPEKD
T5 sequence (Q96SW2 whole entry): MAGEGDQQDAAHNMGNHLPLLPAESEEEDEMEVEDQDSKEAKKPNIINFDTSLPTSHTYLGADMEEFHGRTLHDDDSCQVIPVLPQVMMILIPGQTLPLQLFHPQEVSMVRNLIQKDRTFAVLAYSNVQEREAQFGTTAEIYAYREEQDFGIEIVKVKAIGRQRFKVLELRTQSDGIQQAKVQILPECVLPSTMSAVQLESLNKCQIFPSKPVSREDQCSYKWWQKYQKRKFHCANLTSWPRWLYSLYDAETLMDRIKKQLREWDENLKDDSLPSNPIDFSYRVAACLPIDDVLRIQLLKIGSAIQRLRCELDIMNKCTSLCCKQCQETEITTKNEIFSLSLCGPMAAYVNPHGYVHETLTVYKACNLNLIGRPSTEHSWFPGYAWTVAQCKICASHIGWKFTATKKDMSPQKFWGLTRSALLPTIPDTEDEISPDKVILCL
T5 sequence (Q16531 whole entry partner): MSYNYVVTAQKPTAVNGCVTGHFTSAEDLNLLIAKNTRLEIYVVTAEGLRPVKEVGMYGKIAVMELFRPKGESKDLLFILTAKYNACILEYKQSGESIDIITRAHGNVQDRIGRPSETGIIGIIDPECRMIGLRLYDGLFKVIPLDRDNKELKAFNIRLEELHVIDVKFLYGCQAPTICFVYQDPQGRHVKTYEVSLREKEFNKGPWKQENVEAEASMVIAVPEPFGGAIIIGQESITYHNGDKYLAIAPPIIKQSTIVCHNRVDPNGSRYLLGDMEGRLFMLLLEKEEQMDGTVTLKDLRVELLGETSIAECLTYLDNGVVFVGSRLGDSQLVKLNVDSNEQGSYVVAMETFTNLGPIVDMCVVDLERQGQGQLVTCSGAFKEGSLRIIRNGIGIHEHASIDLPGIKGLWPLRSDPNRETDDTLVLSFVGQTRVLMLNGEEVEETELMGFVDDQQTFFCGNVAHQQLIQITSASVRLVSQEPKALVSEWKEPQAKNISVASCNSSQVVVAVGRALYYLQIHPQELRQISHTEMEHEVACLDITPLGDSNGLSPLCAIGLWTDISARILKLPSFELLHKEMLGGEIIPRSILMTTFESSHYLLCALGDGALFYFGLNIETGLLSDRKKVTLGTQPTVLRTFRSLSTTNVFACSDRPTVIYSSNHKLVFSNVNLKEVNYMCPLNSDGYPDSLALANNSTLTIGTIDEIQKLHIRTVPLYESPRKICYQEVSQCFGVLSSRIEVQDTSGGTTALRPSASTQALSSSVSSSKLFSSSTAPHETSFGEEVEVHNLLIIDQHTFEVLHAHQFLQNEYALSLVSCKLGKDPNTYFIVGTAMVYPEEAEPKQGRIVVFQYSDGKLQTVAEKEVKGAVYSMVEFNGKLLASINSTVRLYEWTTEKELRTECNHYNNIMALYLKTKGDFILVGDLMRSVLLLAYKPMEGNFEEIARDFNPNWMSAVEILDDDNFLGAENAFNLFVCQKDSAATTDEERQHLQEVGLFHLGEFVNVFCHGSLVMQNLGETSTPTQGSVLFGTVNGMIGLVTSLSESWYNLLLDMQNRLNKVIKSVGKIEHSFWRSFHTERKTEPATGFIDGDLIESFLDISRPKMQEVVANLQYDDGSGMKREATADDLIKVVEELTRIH
T6 sequence (Q9UKS7 whole entry): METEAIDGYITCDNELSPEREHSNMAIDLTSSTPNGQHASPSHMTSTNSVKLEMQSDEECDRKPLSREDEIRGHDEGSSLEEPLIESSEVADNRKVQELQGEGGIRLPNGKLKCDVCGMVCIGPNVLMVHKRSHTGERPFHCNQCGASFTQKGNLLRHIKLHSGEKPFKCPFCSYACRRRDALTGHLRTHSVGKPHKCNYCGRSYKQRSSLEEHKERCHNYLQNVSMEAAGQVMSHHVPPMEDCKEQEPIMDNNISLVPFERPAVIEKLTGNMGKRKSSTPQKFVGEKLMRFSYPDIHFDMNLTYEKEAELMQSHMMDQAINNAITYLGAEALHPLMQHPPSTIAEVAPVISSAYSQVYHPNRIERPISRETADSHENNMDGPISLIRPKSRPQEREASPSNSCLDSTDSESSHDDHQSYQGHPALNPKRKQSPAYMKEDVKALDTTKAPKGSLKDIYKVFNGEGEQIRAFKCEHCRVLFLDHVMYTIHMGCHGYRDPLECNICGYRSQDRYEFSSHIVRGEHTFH
T6 sequence (Q96SW2 whole entry): as the sequence (Q96SW2 whole entry) above
T6 sequence (Q16531 whole entry partner): as the sequence (Q16531 whole entry partner) above
T1 sequence (P30291 whole entry): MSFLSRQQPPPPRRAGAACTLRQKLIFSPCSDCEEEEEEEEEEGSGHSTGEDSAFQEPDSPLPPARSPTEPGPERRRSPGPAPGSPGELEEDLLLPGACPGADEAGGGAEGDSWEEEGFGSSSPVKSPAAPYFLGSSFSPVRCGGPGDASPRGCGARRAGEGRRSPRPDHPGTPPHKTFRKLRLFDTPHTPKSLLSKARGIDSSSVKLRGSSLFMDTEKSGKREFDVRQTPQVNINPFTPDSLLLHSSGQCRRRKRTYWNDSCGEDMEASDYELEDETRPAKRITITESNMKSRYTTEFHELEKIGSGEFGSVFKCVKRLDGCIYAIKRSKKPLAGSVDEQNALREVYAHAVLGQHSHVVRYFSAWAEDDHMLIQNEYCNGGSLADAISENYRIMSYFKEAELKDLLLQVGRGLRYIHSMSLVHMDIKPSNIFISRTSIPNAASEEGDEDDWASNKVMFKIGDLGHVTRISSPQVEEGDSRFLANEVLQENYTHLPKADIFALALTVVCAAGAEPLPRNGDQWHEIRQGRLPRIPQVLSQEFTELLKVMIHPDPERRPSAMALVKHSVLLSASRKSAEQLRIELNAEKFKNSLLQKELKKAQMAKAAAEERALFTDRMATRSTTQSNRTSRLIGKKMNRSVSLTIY
T1 sequence (Q96SW2 whole entry): as the sequence (Q96SW2 whole entry) above
T1 sequence (Q16531 whole entry partner): as the sequence (Q16531 whole entry partner) above
T2 sequence (Q9UKT9 whole entry): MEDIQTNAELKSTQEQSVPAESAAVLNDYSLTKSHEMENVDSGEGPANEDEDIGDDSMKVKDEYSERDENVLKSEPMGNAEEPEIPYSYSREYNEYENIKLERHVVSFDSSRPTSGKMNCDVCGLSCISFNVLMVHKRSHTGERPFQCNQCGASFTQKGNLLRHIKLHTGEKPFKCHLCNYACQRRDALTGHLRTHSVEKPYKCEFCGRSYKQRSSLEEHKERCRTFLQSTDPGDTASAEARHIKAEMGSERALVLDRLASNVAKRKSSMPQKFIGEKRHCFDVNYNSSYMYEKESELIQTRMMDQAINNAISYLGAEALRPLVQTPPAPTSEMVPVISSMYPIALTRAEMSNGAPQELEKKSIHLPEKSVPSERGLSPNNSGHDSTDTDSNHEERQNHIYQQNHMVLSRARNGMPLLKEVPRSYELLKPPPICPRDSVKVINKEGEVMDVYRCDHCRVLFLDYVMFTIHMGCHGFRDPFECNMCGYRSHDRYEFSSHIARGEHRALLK
T2 sequence (Q96SW2 whole entry): as the sequence (Q96SW2 whole entry) above
T2 sequence (Q16531 whole entry partner): as the sequence (Q16531 whole entry partner) above
T4 sequence (P48729 whole entry): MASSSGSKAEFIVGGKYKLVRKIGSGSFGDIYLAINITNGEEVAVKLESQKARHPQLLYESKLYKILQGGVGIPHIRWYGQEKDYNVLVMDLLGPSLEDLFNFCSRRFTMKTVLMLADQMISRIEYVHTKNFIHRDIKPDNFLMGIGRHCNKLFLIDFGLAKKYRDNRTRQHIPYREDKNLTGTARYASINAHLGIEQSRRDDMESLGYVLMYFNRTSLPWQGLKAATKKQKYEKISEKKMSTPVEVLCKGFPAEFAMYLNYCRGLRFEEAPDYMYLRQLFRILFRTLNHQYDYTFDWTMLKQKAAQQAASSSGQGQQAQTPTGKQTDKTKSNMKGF
T4 sequence (Q96SW2 whole entry): as the sequence (Q96SW2 whole entry) above
T4 sequence (Q16531 whole entry partner): as the sequence (Q16531 whole entry partner) above
Procedure for MDA-MB-231: The tumor cells used herein were cultured in a cell culture medium listed in table 2 at 37°C in an incubator with 5% CO2. Prior to experimentation, all cell lines used were correctly identified by STR profiling, and tested negative for mycoplasma contamination using a mycoplasma detection kit through routine screenings.
On the following day, the test compounds of the present disclosure were subjected to serial dilution. […] Subsequently, 0.5 µL of the test compound dilution was transferred into the 96-well plate containing the cells, with each well containing 100 µL of cell culture medium. […] Into the 96-well plate, the diluted test compounds and corresponding detection reagents were added, resulting in final test compound concentrations of 500 nM and 10 nM, respectively. The experimental procedure is described below using the diluted 2 µM test compound as an example.
After the cells were treated with the compounds of the present disclosure for a specified period, the cell viability assay reagent was added to the culture medium according to the kit's instructions to determine cell viability. […] All controls were treated using the same procedure as the compounds of the present disclosure. The growth inhibition curves for the compounds of the present disclosure were plotted using Prism GraphPad software, and the IC50 values were calculated therefrom.

Usually inhibition stands for the change of the read-out against control, counted positive when it falls. For the compound `Cc1nc(N2CCN(Cc3ccc4c(c3)C(=O)N(N3CCC(=O)NC3=O)C4=O)CC2)c2c(-c3ccccc3)csc2n1` [GT-08099, 2-(2,4-dioxotetrahydropyrimidin-1(2H)-yl)-5-((4-(2-methyl-5-phenylthieno[2,3-d]pyrimidin-4-yl)piperazin-1-yl)methyl)isoindoline-1,3-dione], on WEE1, the “substrate protein remaining % WEE1” value is on record as “B (80%< substrate protein remaining %≤ 100%)”. For the same compound, the inhibition at 0.01 µM in the test on H2228 fell in the range of 25 to 30%; with MV-4-11 it was 25 to 30%; with MDA-MB-231 it was 18 to 25%; with H292, 20 to 40%. The inhibition at 0.5 µM in the test on H2228 was 30 to 40%; with MV-4-11, 5 to 10%; in the test on MDA-MB-231, 25 to 40%; with H292, 20 to 40%. For the same compound, the “substrate protein remaining % IKZF3” value on IKZF3 is recorded as “B (80%< substrate protein remaining %≤ 100%)”. Besides, the “substrate protein remaining % IKZF1” value at IKZF1 is “B (80%< substrate protein remaining %≤ 100%)”. Besides, the “substrate protein remaining % CK1α” value at CK1α is listed as “B (80%< substrate protein remaining %≤ 100%)”. Further, the “substrate protein remaining % GSPT1” value at GSPT1 is listed as “A (0% ≤ substrate protein remaining % ≤ 80%)”. For the same compound, on IKZF2, the “substrate protein remaining % IKZF2” value was “B (80%< substrate protein remaining %≤ 100%)”.
Take `O=C1CCN(N2Cc3cc(CN4CCC(c5ncnc6sc7c(c56)CCC7)CC4)ccc3C2=O)C(=O)N1` [GT-08113, 1-(5-((4-(6,7-dihydro-5H-cyclopenta[4,5]thieno[2,3-d]pyrimidin-4-yl)piperidin-1-yl)methyl)-1-oxoisoindolin-2-yl)dihydropyrimidine-2,4(1H,3H)-dione]: the “substrate protein remaining % WEE1” value on WEE1 is reported as “B (80%< substrate protein remaining %≤ 100%)”. Besides, the inhibition at 0.01 µM in the test with H2228 fell in the range of 20 to 25%; in the test on MV-4-11 it was 30 to 40%; in the test with MDA-MB-231, 25 to 40%; with H292 it was 20 to 40%. The inhibition at 0.5 µM was in the range of 25 to 30% in the test on H2228, 10 to 18% in the test with MV-4-11, 40 to 60% in the test on MDA-MB-231 and 20 to 40% in the test on H292. Moreover, the “substrate protein remaining % IKZF3” value at IKZF3 is given as “B (80%< substrate protein remaining %≤ 100%)”. Besides, at IKZF1, the “substrate protein remaining % IKZF1” value was “B (80%< substrate protein remaining %≤ 100%)”. Moreover, at CK1α, the “substrate protein remaining % CK1α” value is reported as “A (0% ≤ substrate protein remaining % ≤ 80%)”. On GSPT1, the “substrate protein remaining % GSPT1” value is “A (0% ≤ substrate protein remaining % ≤ 80%)”. For the same compound, the “substrate protein remaining % IKZF2” value on IKZF2 is listed as “B (80%< substrate protein remaining %≤ 100%)”.
Consider `O=C1CCN(N2C(=O)c3ccc(CN4CCN(c5ncnc6sc7c(c56)CCCC7)CC4)cc3C2=O)C(=O)N1` [GT-08102, 2-(2,4-dioxotetrahydropyrimidin-1(2H)-yl)-5-((4-(5,6,7,8-tetrahydrobenzo[4,5]thieno[2,3-d]pyrimidin-4-yl)piperazin-1-yl)methyl)isoindoline-1,3-dione], for which the inhibition at 0.01 µM fell in the range of 20 to 25% in the test on H2228, 30 to 42% with MM.1S and 40 to 60% with MV-4-11. The inhibition at 0.5 µM is 20 to 25% with H2228, 30 to 42% in the test with MM.1S and 40 to 60% in the test with MV-4-11.
Regarding `O=C1CCN(N2C(=O)c3ccc(CN4CCN(c5ncnc6sc(Br)cc56)CC4)cc3C2=O)C(=O)N1` [GT-08096, 5-((4-(6-bromothieno[2,3-d]pyrimidin-4-yl)piperazin-1-yl)methyl)-2-(2,4-dioxotetrahydropyrimidin-1(2H)-yl)isoindoline-1,3-dione], on WEE1, the “substrate protein remaining % WEE1” value is “A (0% ≤ substrate protein remaining % ≤ 80%)”. The inhibition at 0.01 µM in the test on H2228 lay in the range of 30 to 40%; in the test with MV-4-11, 30 to 40%; with MDA-MB-231 it was 25 to 40%; with H292 it was 40 to 60%. For the same compound, the inhibition at 0.5 µM in the test with H2228 lay in the range of 20 to 25%; in the test on MV-4-11, 30 to 40%; with MDA-MB-231, 18 to 25%; with H292, 20 to 40%. Also, the “substrate protein remaining % IKZF3” value at IKZF3 is “B (80%< substrate protein remaining %≤ 100%)”. In addition, the “substrate protein remaining % IKZF1” value at IKZF1 is on record as “B (80%< substrate protein remaining %≤ 100%)”. Moreover, the “substrate protein remaining % CK1α” value at CK1α is given as “A (0% ≤ substrate protein remaining % ≤ 80%)”. Besides, the “substrate protein remaining % GSPT1” value at GSPT1 is “A (0% ≤ substrate protein remaining % ≤ 80%)”. Further, the “substrate protein remaining % IKZF2” value on IKZF2 is recorded as “B (80%< substrate protein remaining %≤ 100%)”.
Take `Cc1sc2ncnc(N3CCCN(Cc4ccc5c(c4)CN(N4CCC(=O)NC4=O)C5=O)CC3)c2c1C` [GT-08062, 1-(5-((4-(5,6-dimethylthieno[2,3-d]pyrimidin-4-yl)-1,4-diazepan-1-yl)methyl)-1-oxoisoindolin-2-yl)dihydropyrimidine-2,4(1H,3H)-dione]: the “substrate protein remaining % WEE1” value on WEE1 is recorded as “B (80%< substrate protein remaining %≤ 100%)”. For the same compound, the inhibition at 0.01 µM is 25 to 30% in the test on H2228, 30 to 42% in the test with MM.1S, 15 to 18% in the test with MDA-MB-231 and 20 to 40% in the test on H292. In addition, the inhibition at 0.5 µM with H2228 is 30 to 40%; in the test with MM.1S, 30 to 42%; in the test on MDA-MB-231, 25 to 40%; in the test on H292, 40 to 60%. Moreover, the “substrate protein remaining % IKZF3” value at IKZF3 is “A (0% ≤ substrate protein remaining % ≤ 80%)”. Moreover, the “substrate protein remaining % IKZF1” value on IKZF1 is on record as “B (80%< substrate protein remaining %≤ 100%)”. Moreover, the “substrate protein remaining % CK1α” value on CK1α is reported as “B (80%< substrate protein remaining %≤ 100%)”. In addition, the “substrate protein remaining % GSPT1” value at GSPT1 is “B (80%< substrate protein remaining %≤ 100%)”. In addition, the “substrate protein remaining % IKZF2” value on IKZF2 was “A (0% ≤ substrate protein remaining % ≤ 80%)”.
Regarding `O=C1CCN(N2Cc3cc(CN4CC=C(c5cccc(F)c5Cl)CC4)ccc3C2=O)C(=O)N1` [GT-08055, 1-(5-((4-(2-chloro-3-fluorophenyl)-3,6-dihydropyridin-1(2H)-yl)methyl)-1-oxoisoindolin-2-yl)dihydropyrimidine-2,4(1H,3H)-dione], at WEE1, the “substrate protein remaining % WEE1” value was “A (0% ≤ substrate protein remaining % ≤ 80%)”. For the same compound, the inhibition at 0.01 µM with H2228 is 10 to 15%; in the test with MM.1S it was -10 to -5%; in the test on MV-4-11, 25 to 30%; in the test with MDA-MB-231 it was 18 to 25%. The inhibition at 0.5 µM in the test with H2228 lay within 20 to 25%; in the test on MM.1S, 80 to 100%; in the test on MV-4-11 it was 80 to 100%; in the test with MDA-MB-231 it was 60 to 80%. The “substrate protein remaining % IKZF3” value at IKZF3 is “A (0% ≤ substrate protein remaining % ≤ 80%)”. In addition, the “substrate protein remaining % IKZF1” value on IKZF1 is on record as “A (0% ≤ substrate protein remaining % ≤ 80%)”. On CK1α, the “substrate protein remaining % CK1α” value is on record as “A (0% ≤ substrate protein remaining % ≤ 80%)”. Moreover, the “substrate protein remaining % GSPT1” value on GSPT1 was “A (0% ≤ substrate protein remaining % ≤ 80%)”. Besides, at IKZF2, the “substrate protein remaining % IKZF2” value is listed as “A (0% ≤ substrate protein remaining % ≤ 80%)”.
As to `O=C1CCN(N2Cc3cc(CN4CC=C(c5cccc(Cl)c5Cl)CC4)ccc3C2=O)C(=O)N1` [GT-08054, 1-(5-((4-(2,3-dichlorophenyl)-3,6-dihydropyridin-1(2H)-yl)methyl)-1-oxoisoindolin-2-yl)dihydropyrimidine-2,4(1H,3H)-dione], at WEE1, the “substrate protein remaining % WEE1” value is “A (0% ≤ substrate protein remaining % ≤ 80%)”. Moreover, the inhibition at 0.01 µM is 20 to 25% in the test with H2228, 5 to 10% in the test with MM.1S, 18 to 25% in the test on MV-4-11 and 25 to 40% with MDA-MB-231. Moreover, the inhibition at 0.5 µM in the test with H2228 was in the range of 40 to 60%; with MM.1S, 80 to 100%; with MV-4-11, 80 to 100%; with MDA-MB-231, 80 to 100%. Further, on IKZF3, the “substrate protein remaining % IKZF3” value is listed as “A (0% ≤ substrate protein remaining % ≤ 80%)”. In addition, at IKZF1, the “substrate protein remaining % IKZF1” value was “A (0% ≤ substrate protein remaining % ≤ 80%)”. Also, the “substrate protein remaining % CK1α” value on CK1α was “A (0% ≤ substrate protein remaining % ≤ 80%)”. In addition, the “substrate protein remaining % GSPT1” value at GSPT1 is given as “A (0% ≤ substrate protein remaining % ≤ 80%)”. Also, the “substrate protein remaining % IKZF2” value on IKZF2 is “A (0% ≤ substrate protein remaining % ≤ 80%)”.
